Results: paper PMC8906456, “Structural insights into the catalytic and inhibitory mechanisms of the flavin transferase FmnB in Listeria monocytogenes” (MedComm, 2022)

Biological target: T1, FmnB (Listeria monocytogenes, UniProt A0A0H3GJF7)
T1 construct: gene LMRG_02181; structure covers about residues 36-357
T1 sequence (A0A0H3GJF7 20-360): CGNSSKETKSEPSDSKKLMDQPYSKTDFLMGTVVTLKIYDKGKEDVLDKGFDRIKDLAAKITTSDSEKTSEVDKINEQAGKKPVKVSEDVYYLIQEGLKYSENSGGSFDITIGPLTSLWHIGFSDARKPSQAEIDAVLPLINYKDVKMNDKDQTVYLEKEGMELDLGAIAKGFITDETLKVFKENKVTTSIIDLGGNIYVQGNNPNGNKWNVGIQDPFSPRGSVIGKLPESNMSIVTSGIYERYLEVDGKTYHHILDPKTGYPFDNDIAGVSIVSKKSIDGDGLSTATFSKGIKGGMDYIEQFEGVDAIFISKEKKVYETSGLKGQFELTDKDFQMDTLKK
Assay: inhibition of PplA FMNylation, in-gel flavin fluorescence
Assay type: biochemical
Settings: 10 uM to 4 mM inhibitor; 100 uM FAD, 50 uM PplA, 15 mM Mg2+, 16 °C; competitive

## Nc1ncnc2c1ncn2[C@@H]1O[C@H](COP(=O)(O)OP(=O)(O)O)[C@@H](O)[C@H]1O [ADP]
  inhibition of PplA FMNylation, in-gel flavin fluorescence: ADP demonstrated a much stronger inhibitory ability against FmnB activity (Figure 4A)

## Nc1ncnc2c1ncn2[C@@H]1O[C@H](COP(=O)(O)O)[C@@H](O)[C@H]1O [AMP]
  inhibition of PplA FMNylation, in-gel flavin fluorescence: the enzymatic assays indicated that AMP, ADP and ATP could inhibit FmnB activity

## Nc1ncnc2c1ncn2[C@@H]1O[C@H](COP(=O)(O)OP(=O)(O)OP(=O)(O)O)[C@@H](O)[C@H]1O [ATP]
  inhibition of PplA FMNylation, in-gel flavin fluorescence: the enzymatic assays indicated that AMP, ADP and ATP could inhibit FmnB activity
